This experiment addresses T1, BIRC3 (Homo sapiens, UniProt Q13489).
T1 construct: endogenous in cells; host or cells: primary human T cells
The experiment in a line: isoTOP-ABPP and TMT-ABPP cysteine engagement, BIRC3. The format is binding. Here is the method:
Activated or expanded T cells were re-suspended in RPMI media supplemented with 10% FBS, L-glutamine (2 mM), penicillin (100 U/mL), and streptomycin (100 μg/mL) at 2×10^6 cells/mL. The compounds were added to cells as 1000×DMSO stocks and mixed well with the media by pipetting up and down after addition. The cells were kept at 37° C. in 5% CO2 containing incubators for 3 h (or otherwise specified times), then pelleted by centrifugation (524 g, 5 min, 4° C.), washed with cold PBS (10 mL) and transferred to Eppendorf tubes (1 mL PBS). The cells were pelleted again (524 g, 5 min, 4° C.), flash-frozen, and kept at −80° C. until further analysis.
Activated or expanded primary human T cells were re-suspended in RPMI (1×10^6 cells/mL) containing 10% fetal bovine serum (FBS), penicillin (100 U/mL), streptomycin ([…]), and L-glutamine (2 mM). […] The resulting proteomes were analyzed by competitive isotopic Tandem Orthogonal Proteolysis Activity-Based Protein Profiling (isoTOP-ABPP). […]
The heavy/light isoTOP-ABPP ratios (R values) for each unique peptide (DMSO/compound treated) were quantified with in-house CIMAGE software (Weerapana et al., 2010) using default parameters (3 MS1 acquisitions per peak and signal to noise threshold set to 2.5). Site-specific engagement of cysteine residues was assessed by blockade of IA-alkyne probe labeling. […]

T1 sequence (Q13489 whole entry): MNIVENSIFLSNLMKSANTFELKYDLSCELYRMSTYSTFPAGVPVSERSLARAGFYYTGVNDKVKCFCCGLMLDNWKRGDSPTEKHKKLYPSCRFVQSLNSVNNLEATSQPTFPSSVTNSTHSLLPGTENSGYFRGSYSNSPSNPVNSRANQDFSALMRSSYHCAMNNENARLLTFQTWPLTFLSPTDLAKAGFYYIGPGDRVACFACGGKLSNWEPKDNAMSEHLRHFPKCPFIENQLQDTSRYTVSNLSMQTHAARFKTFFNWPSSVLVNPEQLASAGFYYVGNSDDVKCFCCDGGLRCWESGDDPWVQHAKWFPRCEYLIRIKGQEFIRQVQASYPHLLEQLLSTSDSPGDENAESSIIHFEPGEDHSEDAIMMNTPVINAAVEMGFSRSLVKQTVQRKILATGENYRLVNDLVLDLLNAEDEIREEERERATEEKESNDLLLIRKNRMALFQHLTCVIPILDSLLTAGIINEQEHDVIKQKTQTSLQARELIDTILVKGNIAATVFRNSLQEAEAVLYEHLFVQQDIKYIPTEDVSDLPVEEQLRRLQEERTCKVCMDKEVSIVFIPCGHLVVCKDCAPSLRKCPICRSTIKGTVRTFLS

As to `O=C(CCl)N1CCN(S(=O)(=O)c2ccc(-c3ccncc3)cc2)CC1` [EV-3], the “engagement of C28 of BIRC3” value is recorded as “unique target”.

Values taken from patent US20240131032A1, “AN ACTIVITY-GUIDED MAP OF ELECTROPHILE-CYSTEINE INTERACTIONS IN PRIMARY HUMAN IMMUNE CELLS” (The Scripps Research Institute, priority 2019, published 2024).
